Patent US20200338056A1, “INDUCTION OF SENESCENCE USING PROTON PUMP INHIBITORS” (THE METHODIST HOSPITAL SYSTEM, priority 2016, published 2020)
“Also recorded” adds a separate entry of the source.

Columns and labels:
[1] = system: Human microvascular endothelial cells (ECs); experiment: Lysosomal pH by pHrodo Green/Red dextran fluorescence in live ECs; assay type: cell-based
Method: (§1) Cell culture. Human microvascular endothelial cells (ECs) purchased from Lonza (cat # CC-2543, Basel, Switzerland) were cultured continuously for three passages from passage (P) 4 to P6 in the presence of clinically relevant doses of esomeprazole or vehicle (DMSO) (Shin J M, Kim N. Pharmacokinetics and pharmacodynamics of the proton pump inhibitors. Journal of neurogastroenterology and motility. 2013; 19:25-35). All in vitro experiments were performed at P6 upon confluency. […]
(§2) Lysosomal studies. Cellular pH, lysosomal cathepsin B and protein aggregation were measured in live ECs using pHrodo™ Green/Red dextran, 10,000 MW dye (cat: P35368/P35372, MOLECULAR PROBES®, Life Technologies, Carlsbad, Calif.), Magic Red™ Cathepsin B Assay Kit (cat: 938, ImmunoChemistry Technologies LLC, Bloomington, Minn.) and PROTEOSTAT® Protein aggregation assay (cat: ENZ-51023-KP002, Enzo Life Sciences, Inc., Farmingdale, N.Y.). The pHrodo™ Green dextran when endocytosed permits visualization of endosomal pH, with an inverse non-linear relationship of fluorescence intensity to pH. […] Fluorescence images were taken using Olympus IX51 Inverted fluorescence microscope at 10× magnification and 40× for protein aggregation. All images were quantified using NIH ImageJ 1.47v software. […] Absorbance was measured using Tecan Infinite® M1000 PRO multimode reader at 405 nm (Tecan, Mannedorf, Switzerland).

lysosomal cathepsin B = experiment: Magic Red Cathepsin B assay in live ECs; assay type: cell-based, human; settings: ECs treated chronically, 5 and 10 μmol/L, P4-6, vs vehicle
Method: as §1, §2

acid phosphatase = experiment: Acid phosphatase activity assay, EC lysate; assay type: cell-based, human; settings: ECs treated chronically, 5 and 10 μmol/L, P4-6, vs vehicle
Method: as §1, §2

[2] = system: N-acetyl-β-d-glucosaminidase; experiment: N-Acetyl-β-D-Glucosaminidase (NAG) activity assay, EC lysate; assay type: cell-based, human; settings: ECs treated chronically, vs vehicle
Method: as §1, §2

[3] = system: Human microvascular endothelial cells (ECs); experiment: PROTEOSTAT protein aggregation assay in ECs; assay type: cell-based; settings: ECs treated chronically, vs vehicle
Method: as §1, §2

[4] = system: Human microvascular endothelial cells (ECs); experiment: Superoxide anion by dihydroethidium (DHE) live cell imaging; assay type: cell-based; settings: ECs treated chronically, vs vehicle
Method: as §1
(§3) Measurement of superoxide and nitric oxide. Superoxide and nitric oxide were measured in ECs using live cell imaging dyes; DHE (Molecular Probes® cat # D-1168, Eugene, Oreg.) for superoxide and DAF-2DA (Sigma cat #50277, St. Louis, Mo.) for nitric oxide measurement according to the published protocol (Yepuri G, et al., Positive crosstalk between arginase-ii and s6k1 in vascular endothelial inflammation and aging. Aging cell. 2012; 11:1005-1016). Several images per well were captured using Olympus IX51 Inverted fluorescence microscope. Relative fluorescence intensities of images were quantified using NIH ImageJ software. The total NO concentration (NOx) was determined using the Griess colorimetric assay as previously described (Ghebremariam Y T, et al., Fxr agonist int-747 upregulates ddah expression and enhances insulin sensitivity in high-salt fed dahl rats. PloS one. 2013; 8:e60653).

[5] = system: Human microvascular endothelial cells (ECs); experiment: Nitric oxide by DAF-2DA live cell imaging; assay type: cell-based; settings: ECs treated chronically, vs vehicle
Method: as §1, §3

[6] = system: Human microvascular endothelial cells (ECs); experiment: Total nitrate/nitrite (NOx) by Griess colorimetric assay; assay type: cell-based; settings: ECs treated chronically, vs vehicle
Method: as §1, §3

[7] = system: Human microvascular endothelial cells (ECs); experiment: Quantitative PCR (Taqman) gene expression in ECs; assay type: cell-based; settings: RT-PCR, vs vehicle
Method: (§4) Cell culture. Human microvascular endothelial cells (ECs) purchased from Lonza (cat # CC-2543, Basel, Switzerland) were cultured continuously for three passages from passage (P) 4 to P6 in the presence of clinically relevant doses of esomeprazole or vehicle (DMSO) (Shin J M, Kim N. Pharmacokinetics and pharmacodynamics of the proton pump inhibitors. Journal of neurogastroenterology and motility. 2013; 19:25-35). All in vitro experiments were performed at P6 upon confluency. ECs were cultured and maintained in EBM-2 Basal Medium (cat # CC-3156, Lonza, Basel, Switzerland) supplemented with EGM-2 MV SingleQuots™ Kit—growth factors, cytokines, and antibiotics (cat # CC-4147, Lonza, Basel, Switzerland).
Quantitative PCR and PCR array. Total RNA was isolated from cultured cells using PerfectPure RNA Cultured Cell Kit-50 from 5 PRIME (cat #2900319, San Francisco, Calif.) according to the manufacturer's instruction. Complementary DNA (cDNA) was prepared using gScript™ cDNA SuperMix (Quanta BioSciences, Inc. cat #95048, Beverly, Mass.). Quantitative PCR (qPCR) was performed using Taqman gene expression assays (Applied Biosystems, Foster City, Calif.). All genes analyzed for expression (listed in the table below) were normalized to GAPDH expression and expressed as relative fold changes using the ΔCt method of analysis. Gene expression of shelterin complex genes was quantified using SYBR™ Green Real Time PCR master mix. Primers for genes related to shelterin complex were obtained from Integrated DNA Technologies, Inc. (San Jose, Calif.) and are listed in the table below. RT^2 Profiler PCR Array (Qiagen, Hilden, Germany) was used to assess expression of selected genes associated with specific cellular functions following manufacturer's instructions. Name, catalog numbers and genes detected by the arrays are listed below.

[8] = system: Human microvascular endothelial cells (ECs); experiment: BrdU cell proliferation ELISA; assay type: cell-based; settings: chronic exposure, 3 passages, vs vehicle
Method: as §4

[9] = system: Human microvascular endothelial cells (ECs); experiment: Network formation assay on growth factor reduced matrigel (angiogenic capacity); assay type: cell-based; settings: growth factor-depleted matrigel, vs vehicle
Method: as §4
Network formation assay to measure angiogenic capacity. In order to assess angiogenic capacity of ECs, growth factor reduced matrigel from BD Biosciences (cat #354230, San Jose, Calif.) was used. In brief, 24 well flat transparent plates were coated with 200 μl of matrigel/well and allowed to set at 37° C. for one hour. Subsequently, 1×10^5 cells/well were seeded and allowed to incubate for 16 hours at 37° C. Several images per well were obtained using Olympus IX51 Inverted fluorescence and bright field microscope. Network branching was quantified using NIH ImageJ software. Total length is equal to the summed length of all segments, branches and isolated branches not within the main network. […]

[10] = system: Human microvascular endothelial cells (ECs); experiment: Senescence-associated β-galactosidase (SA-β-gal) staining with SYTO cell count; assay type: cell-based
Method: as §4
Senescence-associated β-galactosidase (SA-β-gal) staining. Senescence of ECs was measured using the Cellular Senescence Assay kit from Cell Biolabs, Inc. (Cat: CBA-230, San Diego, Calif.). The protocol was performed according to the manufacturer's guide. Briefly, Ecs treated continuously for 3 passages with esomeprazole or vehicle were plated in a 6 well plate. Upon confluency, cells were initially fixed and later incubated with SA-β-gal working solution for 16 hours in a non-humidified CO2 free incubator at 37° C. After incubation the cells were counter stained with SYTO® GREEN fluorescent nucleic acid stain (Life Technologies). Several random images per well were taken using light and fluorescent microscope. The SA-β-gal positive cells were counted manually and total cell number per field was quantified using NIH ImageJ software.

[11] = system: Human microvascular endothelial cells (ECs); experiment: RT2 Profiler PCR array, 331 genes from 5 pathways; assay type: cell-based; settings: esomeprazole compared to vehicle (DMSO)
Method: as §4
(§5) Quantitative PCR and PCR array. Total RNA was isolated from cultured cells using PerfectPure RNA Cultured Cell Kit-50 from 5 PRIME (cat #2900319, San Francisco, Calif.) according to the manufacturer's instruction. […] Quantitative PCR (qPCR) was performed using Taqman gene expression assays (Applied Biosystems, Foster City, Calif.). All genes analyzed for expression (listed in the table below) were normalized to GAPDH expression and expressed as relative fold changes using the ΔCt method of analysis. Gene expression of shelterin complex genes was quantified using SYBR™ Green Real Time PCR master mix. […] Name, catalog numbers and genes detected by the arrays are listed below.

PAI-1 = experiment: Western blot for PAI-1 protein expression; assay type: cell-based, human; settings: vs vehicle
Method: as §4
Western blot analysis. Preparation of cell lysate, SDS-PAGE, transfer of proteins onto membrane and western blotting was performed as described previously (Rajapakse A G, et al., Hyperactive s6k1 mediates oxidative stress and endothelial dysfunction in aging: Inhibition by resveratrol. PloS one. 2011; 6:e19237.6). To detect PAI-1 protein expression anti-PAI-1 rabbit monoclonal antibody (Cell Signaling Technology, Inc. cat #11907S, Danvers, Mass.) was used and anti-α-Tubulin mouse monoclonal antibody (Sigma cat # T5168, St. Louis, Mo.) was used to normalize expression.

[12] = system: Human microvascular endothelial cells (ECs); experiment: Long term studies of endothelial histology (81 days after drug discontinued); assay type: cell-based; settings: 5 or 10 μmol/L for 3 passages, then 81 days without drug, vs vehicle
Method: Long term studies of endothelial histology. After ECs were exposed to vehicle or ESO (5 or 10 uM) through 3 passages (P4-P6), the treatment with ESO or vehicle was discontinued when the cells reached confluency at P6. Subsequently the cells in all groups were maintained in endothelial growth medium which was routinely replaced with fresh medium every 48 hours for 81 days. Microphotographs were taken at regular intervals throughout, and on the final day of culture.

[13] = system: Human microvascular endothelial cells (ECs); experiment: Telomere length by monochrome multiplex qPCR (MMqPCR); assay type: cell-based; settings: vs vehicle
Method: as §4
Telomere length and telomerase activity. Telomere length in ECs was measured using monochrome multiplex qPCR (MMqPCR) assay as described previously (Ramunas J, et al., Transient delivery of modified mrna encoding tert rapidly extends telomeres in human cells. FASEB journal: official publication of the Federation of American Societies for Experimental Biology. 2015; 29:1930-1939). The telomeric repeat amplification protocol (TRAP) was performed using TRAPeze® Telomerase Detection Kit (EMD Millipore Inc. cat # S7700, Darmstadt, Germany). […] In brief, ECs treated with esomeprazole or vehicle were collected, counted and total protein was isolated from 100,000 cells. […]

telomerase = experiment: Telomeric repeat amplification protocol (TRAP) telomerase activity; assay type: cell-based, human; settings: TRAP assay, esomeprazole and vehicle ECs
Method: Telomere length and telomerase activity. Telomere length in ECs was measured using monochrome multiplex qPCR ([…]) assay as described previously (Ramunas J, et al., Transient delivery of modified mrna encoding tert rapidly extends telomeres in human cells. FASEB journal: official publication of the Federation of American Societies for Experimental Biology. 2015; 29:1930-1939). The telomeric repeat amplification protocol (TRAP) was performed using TRAPeze® Telomerase Detection Kit (EMD Millipore Inc. cat # S7700, Darmstadt, Germany). Experiment was performed according to the manufacturer's instructions. In brief, ECs treated with esomeprazole or vehicle were collected, counted and total protein was isolated from 100,000 cells. The amount of lysate used per reaction was normalized to the amount of 1,000 cells for ECs and 500 cells for telomerase positive control (PC). In short, TRAP was performed at 30° C. for 30 minutes and resulting products were amplified in a 29 cycle PCR reaction. Heat inactivated (hi) lysate samples for each condition were used as internal negative controls.

shelterin complex = experiment: Shelterin complex gene expression by SYBR Green RT-PCR; assay type: cell-based, human; settings: vs vehicle
Method: as §4, §5

[14] = poor metabolizers (about 3% of whites, 23% of Asians); cited from earlier work
[15] = chronic treatment, at P6, vs vehicle

For `COc1ccc2nc([S@@+]([O-])Cc3ncc(C)c(OC)c3C)[nH]c2c1` [esomeprazole], the “fluorescence intensity of pH-sensitive dye (pHrodo Green), inversely related to lysosomal pH” value ([1]; ECs, esomeprazole 5 and 10 μmol/L, 3 passages (P4-6), vs vehicle (DMSO)) was “significantly reduced”, the “pHrodo red fluorescence (lysosomal distribution)” value ([1]; second pH-sensitive dye, ESO treated vs vehicle treated ECs) was “reduced; also recorded: qualitatively similar findings” and the “activity of lysosomal cathepsin-B” value (lysosomal cathepsin B) was “reduced”. For the same compound, the “activity of acid phosphatase” value (acid phosphatase) was “reduced”, the N-acetyl-β-d-glucosaminidase activity [2] was “does not impair; also recorded: No difference” and the protein aggregates [3] was “increase”. For the same compound, the “superoxide anion (dihydroethidium)” value [4] was “more”, the “NO generation (diamino fluorescein 2-diacetate staining)” value [5] was “less” and the “total nitrate levels (Griess)” value [6] was “decrease”. For the same compound, the “expression of COL1A1” value ([7]; EndoMT gene) was “upregulated”, the “expression of SMAD3” value ([7]; EndoMT gene) was “upregulated” and the “expression of TWIST1” value ([7]; EndoMT gene) was “upregulated”. For the same compound, the “expression of DDAH1/2” value ([7]; normalized to GAPDH) was “decrease”, the “expression of eNOS” value ([7]; normalized to GAPDH) was “decrease” and the “expression of iNOS” value ([7]; normalized to GAPDH) was “decrease”. For the same compound, the “expression of von Willebrand factor” value [7] was “decline”, the “plasminogen activator inhibitor (PAI-1) message expression” value [7] was “upregulated” and the “expression of cell cycle inhibitor p21 gene” value ([7]; chronic treatment) was “increased”. The “cell proliferation (5-bromo-2′-deoxyuridine assay)” value [8] was “dose-dependently impaired”, the “angiogenic capacity of ECs (network formation)” value [9] was “impaired” and the “endothelial senescence / aging (overall finding)” value ([10]; chronic exposure of human ECs) was “accelerated”. The SA-β-gal-positive cells [10, 15] was “increased”, the “total cell count per microscopic field (SYTO-green staining)” value [10, 15] was “decrease” and the “Expression of genes (PCR array) strongly up-regulated, Table 4 gene list” value ([11]; 52 genes listed AGTR1 to ZEB2) was “Expressin of genes (PCR array) that are strongly up-regulated (>2 fold) upon”. The “Expression of genes (PCR array) strongly up regulated, Table 5 gene list” value ([11]; genes listed ACE to VWF) was “Expression of genes (PCR array) that are strongly up regulated (>2 fold) upon”, the “plasminogen activator inhibitor (PAI-1) protein expression” value (PAI-1) was “upregulated” and the “histology at the 3-month time point (cell loss, EndoMT)” value [12] was “acceleration of EndoMT; also recorded: some cell loss or EndoMT”. The telomere length [13] was “significant decrease”, the “telomerase expression or activity” value (telomerase) was “neither group of ECs manifested telomerase expression or activity” and the “expression of all 6 genes of the shelterin complex (TRF1, TRF2, POT1, RAP1, TIN2, TPP1)” value (shelterin complex) was “global downregulation”. For the same compound, the “increase in plasma concentration in CYP2C19 poor metabolizers” value [14] was 3 fold.
